This is an account of results in patent US8329914B2, “Cyclic benzimidazole derivatives useful as anti-diabetic agents” (Merck Sharp & Dohme Corp, priority 2008, dated 2012).

recombinant human AMPK complex 1 (containing α1β1γ1), sequence (Q13131 whole entry): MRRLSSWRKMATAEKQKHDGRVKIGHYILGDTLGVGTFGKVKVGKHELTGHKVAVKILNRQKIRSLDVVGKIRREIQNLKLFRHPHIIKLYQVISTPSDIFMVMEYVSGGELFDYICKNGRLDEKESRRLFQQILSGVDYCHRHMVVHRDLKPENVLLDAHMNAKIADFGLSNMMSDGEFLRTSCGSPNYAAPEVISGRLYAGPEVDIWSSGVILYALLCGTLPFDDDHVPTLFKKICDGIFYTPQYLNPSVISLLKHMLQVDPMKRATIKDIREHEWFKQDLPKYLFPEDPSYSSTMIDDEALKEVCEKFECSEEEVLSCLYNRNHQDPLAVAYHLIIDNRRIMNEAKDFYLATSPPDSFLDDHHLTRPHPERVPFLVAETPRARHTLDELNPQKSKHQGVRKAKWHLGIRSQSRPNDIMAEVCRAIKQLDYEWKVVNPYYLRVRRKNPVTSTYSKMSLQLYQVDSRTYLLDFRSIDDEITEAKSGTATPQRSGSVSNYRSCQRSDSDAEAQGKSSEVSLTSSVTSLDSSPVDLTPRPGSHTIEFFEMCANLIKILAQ
recombinant human AMPK complex 1 (containing α1β1γ1), sequence (Q9Y478 whole entry): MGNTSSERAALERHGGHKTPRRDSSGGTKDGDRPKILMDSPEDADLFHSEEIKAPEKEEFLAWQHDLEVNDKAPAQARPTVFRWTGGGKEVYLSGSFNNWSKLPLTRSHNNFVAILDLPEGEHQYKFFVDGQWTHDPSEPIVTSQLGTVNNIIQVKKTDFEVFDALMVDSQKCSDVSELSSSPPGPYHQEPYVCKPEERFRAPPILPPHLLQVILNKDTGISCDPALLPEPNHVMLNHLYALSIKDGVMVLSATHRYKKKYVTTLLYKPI
recombinant human AMPK complex 1 (containing α1β1γ1), sequence (P54619 whole entry partner): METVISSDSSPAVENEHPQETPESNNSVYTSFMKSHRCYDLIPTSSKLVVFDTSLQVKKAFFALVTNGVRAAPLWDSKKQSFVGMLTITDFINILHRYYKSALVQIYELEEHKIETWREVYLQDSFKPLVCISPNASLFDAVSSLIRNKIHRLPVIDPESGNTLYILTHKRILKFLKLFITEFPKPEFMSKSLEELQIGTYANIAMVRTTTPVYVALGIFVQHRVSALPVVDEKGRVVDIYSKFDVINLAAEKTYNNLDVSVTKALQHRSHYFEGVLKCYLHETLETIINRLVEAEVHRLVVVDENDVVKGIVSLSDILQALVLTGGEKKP

The first series addresses recombinant human AMPK complex 1 (containing α1β1γ1) (Homo sapiens, UniProt Q13131+Q9Y478). Kind of series: AMPKSAMSF (in vitro AMPK activation assay). The class given is biochemical. The settings on record: recombinant human AMPK complex 1 (α1β1γ1). The procedure:
The recombinant human AMPK complex 1 (containing α1β1γ1) was obtained from baculovirus expression system. Recombinant viruses were generated by cotransfection of AMPK/pBacPak9 clones with Baculogold baculovirus DNA (Pharmingen) in spodoptera frugiperda 21 cells according to the manufacturer's instructions. Each round of virus amplification was performed for 5 days in Grace's medium containing 10% serum. Virus that had been subjected to three rounds of amplification was used for all protein production procedures. To express the AMPK complex, sf21 cells were adapted to serum free medium (SF900 II, Invitrogen) by sequential dilution from serum containing stocks into SF900II medium and maintained in shaker flasks at 90 rpm at 27° C. The recombinant AMPK enzyme complex was produced by triple infection, one recombinant virus for each of the subunits, in sf21 cells under serum free conditions. Cells were infected in log phase, 1×10^6 cells/ml, at a multiplicity of infection of ˜5. Cells were harvested by centrifugation at 10,000×g for 15 minutes after 72 hours of infection with viruses. The insect cell pellet from 2 liters of culture was resuspended in 50 ml lysis buffer (20 mM Tris-HCl, 50 mM NaCl, 50 mM NaF, 30 mM Na PPi, 0.25 M sucrose, 10 mM ZnCl2, 2 mM DTT, 0.4 mg/ml digitonin) and subjected to two cycles of freeze-thaw lysis in a dry-ice ethanol bath. Insoluble material was removed by centrifugation at 10,000×g and the supernatant was fractionated with use of polyethylene glycol (PEG). The protein fraction precipitating between 2.5 and 6% PEG was used for further purification using a Blue-Sepharose step (Zhou et al, J. Clin Invest. 108, 1167-1174, 2001).
The total in vitro AMPK activation assay volume is 50 μl in a 96-well plate. The reaction mixture contained 100 μM ATP (0.5 μCi ^33P-ATP per reaction), and 50 μM SAMS (HMRSAMSGLHLVKRR) in a buffer (20 mM HEPES, pH 7.0, 5 mM MgCl2, 0.01% Brij35). The reaction was initiated with addition of the enzyme. After 30-minute incubation at 30° C., the reaction was stopped by addition of 80 μl 1% H3PO4. Aliquots (100 μl) were transferred to 96-well MultiScreen plates (MAPHNOB50; Millipore Corp., Bedford, Mass., USA). The plate was washed three times with 1% H3PO4 followed by detection in a Top-count. The counts per minute from the basal activity (the reaction without activator) was subtracted from each well and the data were expressed as % maximum AMP activation followed by EC50 calculation.
With `O=P(O)(O)CSc1nc2cc(C#Cc3ccc(F)cc3F)c(Cl)cc2[nH]1` [Example 8], the EC50 turned out to be 184 nM.

Take `O=P(O)(O)CSc1nc2cc(-c3ccc(-c4cccnc4)cc3)c(Cl)cc2[nH]1` [Example 22, (5-chloro-6-(4-(pyridin-3-yl)phenyl)-1H-benzo[d]imidazol-2-ylthio)methyl-phosphonic acid]: the EC50 was 82 nM.

Consider `O=P(O)(O)CSc1nc2cc(-c3ccc4[nH]ccc4c3)c(Cl)cc2[nH]1` [Example 27], for which the EC50 came out at 233 nM.

In the case of `Cn1ccc2cc(-c3cc4nc(SCP(=O)(O)O)[nH]c4cc3Cl)ccc21` [Example 28], the concentration giving a half-maximal response (EC50) is 58 nM.

With `O=P(O)(O)CSc1nc2cc(-c3ccc(-c4ccccc4)cc3)c(Cl)cc2[nH]1` [Example 29], the concentration for a half-maximal effect (EC50) was determined as 137 nM.

The same series, now with this note: recombinant human AMPK complex 1 (α1β1γ1); basal activity subtracted; read-out: % Maximum AMP Activation of human AMPK Complex 1.
Consider `O=P(O)(O)CSc1nc2cc(Cl)c(C#Cc3ccccc3)cc2[nH]1` [Example 1, (5-Chloro-6-phenylethynyl-1H-benzoimidazol-2-ylsulfanylmethyl)-phosphonic acid], for which the Emax was > 60%.

On to `O=P(O)(O)CSc1nc2cc(C#Cc3ccc(F)cc3)c(Cl)cc2[nH]1` [Example 2], for which the Emax was > 60%.

On to `O=P(O)(O)CSc1nc2cc(C#Cc3ccc(C(F)(F)F)cc3)c(Cl)cc2[nH]1` [Example 3], for which the Emax was > 60%.

`O=P(O)(O)CSc1nc2cc(C#Cc3cccc(F)c3)c(Cl)cc2[nH]1` [Example 4]: the Emax was > 60%.

For the compound `O=P(O)(O)CSc1nc2cc(C#Cc3ccccn3)c(Cl)cc2[nH]1` [Example 5], the Emax is > 60%.

Consider `O=P(O)(O)CSc1nc2cc(C#Cc3ccccc3F)c(Cl)cc2[nH]1` [Example 6], for which the Emax was > 60%.

Regarding `O=P(O)(O)CSc1nc2cc(C#Cc3ccc(CO)cc3)c(Cl)cc2[nH]1` [Example 7], the Emax was > 60%.

As to `O=P(O)(O)CSc1nc2cc(C#Cc3ccccc3O)c(Cl)cc2[nH]1` [Example 9], the Emax was > 60%.

`O=P(O)(O)CSc1nc2cc(C#Cc3cccnc3)c(Cl)cc2[nH]1` [Example 10]: the Emax is > 60%.

`O=P(O)(O)CSc1nc2cc(C#Cc3ccc(Cl)cc3)c(Cl)cc2[nH]1` [Example 11]: the Emax was > 60%.

`Cc1cc(-c2cc3nc(SCP(=O)(O)O)[nH]c3cc2Cl)ccc1Cl` [Example 12, [6-Chloro-5-(4-chloro-3-methyl-phenyl)-1H-benzoimidazol-2ylsulfanylmethyl]-phosphonic acid]: the Emax is > 60%.

As for `CCOP(=O)(CSc1nc2cc(-c3ccc(Br)cc3)c(Cl)cc2[nH]1)OCC` [Example 13], the Emax is > 60%.

For `CN(C)C(=O)c1ccc(-c2cc3nc(SCP(=O)(O)O)[nH]c3cc2Cl)cc1` [Example 14, [6-Chloro-5-(4-dimethylcarbamoyl-phenyl)-1H-benzoimidazol-2-ylsulfanylmethyl]-phosphonic acid], the Emax is > 60%.

Turning to `O=P(O)(O)CSc1nc2cc(-c3ccc(Cl)c(F)c3)c(Cl)cc2[nH]1` [Example 15, [6-Chloro-5-(4-chloro-3-fluoro-phenyl)-1H-benzoimidazol-2-ylsulfanylmethyl]phosphonic acid], the Emax is > 60%.

For the compound `O=P(O)(O)CSc1nc2cc(-c3ccc(Cl)c(Cl)c3)c(Cl)cc2[nH]1` [Example 16, [6-Chloro-5-(3,4-dichloro-phenyl)-1H-benzoimidazol-2-ylsulfanylmethyl]-phosphonic acid], the Emax was > 60%.

In the case of `CSc1ccc(-c2cc3nc(SCP(=O)(O)O)[nH]c3cc2Cl)cc1` [Example 17, [6-Chloro-5-(4-methylsulfanyl-phenyl)-1H-benzoimidazol-2-ylsulfanylmethyl]-phosphonic acid], the Emax is > 60%.

For `O=C(NC1CC1)c1cc(-c2cc3nc(SCP(=O)(O)O)[nH]c3cc2Cl)ccc1Cl` [Example 18, [6-Chloro-5-(4-chloro-3-cyclopropylcarbamoyl-phenyl)-1H-benzoimidazol-2-ylsulfanylmethyl]-phosohonic acid], the Emax is > 60%.

With `O=P(O)(O)CSc1nc2cc(-c3ccc(N4CCOCC4)cc3)c(Cl)cc2[nH]1` [Example 20, (5-chloro-6-(4-morpholinophenyl)-1H-benzo[d]imidazol-2-ylthio)methylphosphonic acid], the Emax was > 60%.

As for `COc1ccc(-c2ccc(-c3cc4nc(SCP(=O)(O)O)[nH]c4cc3Cl)cc2)cn1` [Example 21, (5-chloro-6-(4-(6-methoxypyridin-3-yl)phenyl)-1H-benzo[d]imidazol-2-ylthio)methylphosphonic acid], the Emax was > 60%.

Take `CC(C)Oc1ccc(-c2ccc(-c3cc4nc(SCP(=O)(O)O)[nH]c4cc3Cl)cc2)cc1` [Example 23, (5-chloro-6-(4′-isopropoxy-biphenyl-4-yl)-1H-benzo[d]imidazol-2-ylthio)methylphosphonic acid]: the Emax was > 60%.

Take `Cc1cncc(-c2ccc(-c3cc4nc(SCP(=O)(O)O)[nH]c4cc3Cl)cc2)c1` [Example 24, (5-chloro-6-[4-(5-methyl-pyridin-3-yl)-phenyl]-1H-benzo[d]imidazol-2-ylthio)methylphosphonic acid]: the Emax is > 60%.

Turning to `O=P(O)(O)CCCc1nc2cc(-c3ccc(-c4ccccc4)cc3)c(Cl)cc2[nH]1` [Example 25, [3-(5-Biphenyl-4-yl-6-chloro-1H-benzoimidazol-2-yl)-propyl]-phosphonic acid], the Emax was > 60%.

With `O=P(O)(O)CCc1nc2cc(-c3ccc(-c4ccccc4)cc3)c(Cl)cc2[nH]1` [Example 26, [2-(Biphenyl-4-yl-6-chloro-1H-benzoimidazol-2-yl)-ethyl]-phosphonic acid], the Emax is > 60%.

`O=P1(CSc2nc3cc(-c4ccc(-c5ccccc5)cc4)c(Cl)cc3[nH]2)OCCC(c2cccc(Cl)c2)O1` (stereo not shown) [Example 30, 5-Biphenyl-4-yl-6-chloro-2-[4-(3-chloro-phenyl)-2-oxo-2lambda*5*-[1,3,2]-dioxaphosphinan-2-ylmethylsulfanyl]-1H-benzoimidazole]: the Emax was > 60%.

For the compound `COc1ccc(COP(=O)(O)CSc2nc3cc(-c4ccc(-c5ccccc5)cc4)c(Cl)cc3[nH]2)cc1F` [Example 31, (5-Biphenyl-4-yl-6-chloro-1H-benzoimidazol-2-ylsulfanylmethyl)-phosphonic acid mono-(3-fluoro-4-methoxy-benzyl)ester], the Emax was > 60%.

With `CCC(=O)SCCOP(=O)(O)CSc1nc2cc(-c3ccc(-c4ccccc4)cc3)c(Cl)cc2[nH]1` [Example 32, Thiopropionic acid S-{2-[(5-biphenyl-4-yl-6-chloro-1H-benzoimidazol-2-ylsulfanylmethyl)-hydroxy-phosphinoyloxy]-ethyl}ester], the Emax was > 60%.

As to `CCC(=O)SCCOP(=O)(CSc1nc2cc(-c3ccc(-c4ccccc4)cc3)c(Cl)cc2[nH]1)OCCSC(=O)CC` [Example 33, Thiopropionic acid S-{2-[(5-biphenyl-4-yl-6-chloro-1H-benzoimidazol-2-ylsulfanylmethyl)-(2-propionylsulfanyl-ethoxy)-phosphinoyloxy]-ethyl}ester], the Emax was > 60%.

As for `O=[P@]1(CSc2nc3cc(-c4ccc(-c5ccccc5)cc4)c(Cl)cc3[nH]2)OCC[C@@H](c2ccncc2)O1` [Example 34, 5-Biphenyl-4-yl-6-chloro-2-(cis{5[1-yl-(4-pyridyl)]}-1-phosphono-2,6-dioxophosphinan-2-ylmethylsulfanyl)-1H-benzoimidazole], the Emax is > 60%.

Take `O=[P@@]1(CSc2nc3cc(-c4ccc(-c5ccccc5)cc4)c(Cl)cc3[nH]2)OCC[C@@H](c2ccncc2)O1` [Example 35, 5-Biphenyl-4-yl-6-chloro-2-(trans{5[1-yl-(4-pyridyl)]}-1-phosphono-2,6-dioxophosphinan-2-ylmethylsulfanyl)-1H-benzoimidazole]: the Emax was > 60%.

Turning to `CC(C)(C)C(=O)OCOP(=O)(CSc1nc2cc(-c3ccc(-c4ccccc4)cc3)c(Cl)cc2n1COC(=O)C(C)(C)C)OCOC(=O)C(C)(C)C` [Example 36, 2,2-Dimethyl-propionic acid[5-biphenyl-4-yl-6-chloro-1-(2,2-dimethylpropionyl-oxymethyl)-1H-benzoimidazol-2-ylsulfanylmethyl]-(2,2-dimethyl-propionyl-oxymethoxy)-phosohinoyloxymethyl ester], the Emax was > 60%.

Test system in another series: not given
Assay: not given
Conditions: not given
Regarding `O=P(O)(O)CSc1nc2cc(Cl)c(C#Cc3ccccc3)cc2[nH]1` [Example 1, (5-Chloro-6-phenylethynyl-1H-benzoimidazol-2-ylsulfanylmethyl)-phosphonic acid], the melting point lay within 210 to 215 °C.

Compound `CC(C)(C)C(=O)OCOP(=O)(CSc1nc2cc(-c3ccc(-c4ccccc4)cc3)c(Cl)cc2n1COC(=O)C(C)(C)C)OCOC(=O)C(C)(C)C` [Example 36, 2,2-Dimethyl-propionic acid[5-biphenyl-4-yl-6-chloro-1-(2,2-dimethylpropionyl-oxymethyl)-1H-benzoimidazol-2-ylsulfanylmethyl]-(2,2-dimethyl-propionyl-oxymethoxy)-phosohinoyloxymethyl ester] displayed a melting point of 210 to 215 °C.

A word on the EC50: it is the midpoint of the concentration-response curve. As usually defined, the melting point is the temperature, or range, at which the solid turns liquid.
